Structures are written as SMILES.

The source of these data is US8513430B2, “Substituted thiazol-2-ylamine derivatives, pharmaceutical compositions, and methods of use as 11-beta HSD1 modulators” (High Point Pharmaceuticals, LLC, priority 2010, dated 2013).

The target of experiment [1] is T1, 11βHSD1 (Homo sapiens, UniProt P28845).
T1 construct: from tissue
Nature of the experiment: in vitro 11β-HSD assay (human microsomes, CISBIO cortisol kit). Type of experiment: biochemical. The following applies: 160 nM cortisone, 200 μM NADPH, 2 h at 37° C., pH 6.0. The protocol: The following assay methods were used to identify and evaluate compounds of Formula (I) that are effective in modulating 11βHSD1.
CISBIO Cortisol kit #62CO2PEB
Assay Buffer: (water based) used for Enzyme, Compounds and Microsomes: 20 mM Tris, 5 mM EDTA, and pH 6.0.
Enzyme Buffer: 333 μM NADPH (FAC 200 μM) and 266 nM Cortisone (FAC 160 nM).
1) Test compounds (10 mM stock in 100% DMSO) were diluted in Assay Buffer (see below) with 1% DMSO FAC and placed into the 96-well plate. Test compounds were typically tested over 10 concentrations (30 μM-0.3 nM).
2) 30 μL Enzyme Buffer, 10 μL Test Compound, 10 μL human microsomes were added to the test compounds and mixed gently by tapping the plate.
3) The plates were incubated for 2 h at 37° C.
4) 25 μL anti Cortisol-K and 25 μL Cortisol d2 were added to the plate and mixed gently by tapping the plate.
5) The plates were incubated at room temperature for 2 h.
6) The plates were read on an Envision model 2120 Perkin-Elmer using emission filters #205 and #217.

The target in experiment [2] is T1, 11βHSD1. Nature of the experiment: Human adipocytes cell based assay (cortisone to cortisol, ELISA). The following applies: human omental adipocytes, 300 nM cortisone, 24 hours at 37° C. As for the experimental part:
Human Adipocytes Cell Based Assay
Cells were ordered from ZenBio, RTP, NC (www.zen-bio.com (OA-1096-3)) pre-plated (96 well). Cell Media was supplied by ZenBio (Omental Adipocyte Medium #OM-AM).
Test compounds were prepared at 10 concentrations (10 μM-0.1 nM). Dilutions were made up in Cell Media. Cell Media from the plate is aspirated and 97 μL was added to the wells.
The plates were incubated for 15 minutes (37° C.).
3 μL of […] cortisone (Sigma #C2755) (300 nM FAC) was added, for a total well volume of 100 μL.
The plates were incubated for 24 hours (37° C.).
The media was harvested from cells.
The samples were then assayed using Cortisol ELISA Kits (R & D Systems #SKGE008). Samples were diluted by a factor of 5. Specific instructions were included in the kit to quantify presence of cortisol in samples through an ELISA assay.
The plates were read on a Spectramax at 450 nm OD.

T1 sequence (P28845 whole entry): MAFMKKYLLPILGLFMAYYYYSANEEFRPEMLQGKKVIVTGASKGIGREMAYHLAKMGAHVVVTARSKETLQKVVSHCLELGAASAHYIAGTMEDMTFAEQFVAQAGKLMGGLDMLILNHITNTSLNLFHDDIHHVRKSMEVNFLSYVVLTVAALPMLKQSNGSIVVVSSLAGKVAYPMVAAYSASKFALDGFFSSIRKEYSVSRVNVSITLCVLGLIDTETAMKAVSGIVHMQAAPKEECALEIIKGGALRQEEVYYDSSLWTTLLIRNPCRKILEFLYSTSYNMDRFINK

`O=C(N[C@H]1C2CC3CC1C[C@](O)(C3)C2)c1csc(NCc2ccco2)n1` [Example 1, 2-[(Furan-2-ylmethyl)-amino]-thiazole-4-carboxylic acid [(E)-5-hydroxy-adamantan-2-yl]-amide]: in experiment [1], the EC50 turned out to be 360 nM.
Consider `O=C(N[C@H]1C2CC3CC1C[C@](O)(C3)C2)c1csc(Nc2ccc(Cl)cn2)n1` [Example 2, 2-(5-Chloro-pyridin-2-ylamino)-thiazole-4-carboxylic acid [(E)-5-hydroxyadamantan-2-yl]-amide], for which it took 31 nM to reach a half-maximal effect in experiment [1] (EC50). Moreover, in experiment [2], the half-inhibitory concentration (IC50) is 19 nM.
In the case of `O=C(N[C@H]1C2CC3CC1C[C@](O)(C3)C2)c1csc(Nc2ccncc2)n1` [Example 3, 2-(Pyridin-4-ylamino)-thiazole-4-carboxylic acid [(E)-5-hydroxy-adamantan-2-yl]-amide], the EC50 in experiment [1] came to 110 nM.
In experiment [1], `O=C(N[C@H]1C2CC3CC1C[C@](O)(C3)C2)c1csc(Nc2cccnc2)n1` [Example 4, 2-(Pyridin-3-ylamino)-thiazole-4-carboxylic acid [(E)-5-hydroxy-adamantan-2-yl]-amide] gave an EC50 of 26 nM.
In experiment [1], `O=C(N[C@H]1C2CC3CC1C[C@](O)(C3)C2)c1csc(Nc2ccccn2)n1` [Example 5, 2-(Pyridin-2-ylamino)-thiazole-4-carboxylic acid [(E)-5-hydroxy-adamantan-2-yl]-amide] yielded an EC50 of 4000 nM.
On to `O=C(N[C@H]1C2CC3CC1C[C@](O)(C3)C2)c1csc(NCCc2ccccc2)n1` [Example 6, 2-(2-Phenyl-ethylamino)-thiazole-4-carboxylic acid [(E)-5-hydroxy-adamantan-2-yl]-amide], for which, in experiment [1], the EC50 was 11 nM.
The same measure, in the same setting: the result for `O=C(N[C@H]1C2CC3CC1C[C@](O)(C3)C2)c1csc(NCCc2ccccn2)n1` [Example 7, 2-(2-Pyridin-2-yl-ethylamino)-thiazole-4-carboxylic acid [(E)-5-hydroxy-adamantan-2-yl]-amide] reads 127 nM; that for `O=C(N[C@H]1C2CC3CC1C[C@](O)(C3)C2)c1csc(Nc2ccc(C(F)(F)F)cc2)n1` [Example 8, 2-(4-Trifluoromethyl-phenylamino)-thiazole-4-carboxylic acid [(E)-5-hydroxy-adamantan-2-yl]-amide], 13 nM; that for `COc1ccc(Nc2nc(C(=O)N[C@H]3C4CC5CC3C[C@](O)(C5)C4)cs2)cc1` [Example 9, 2-(4-Methoxy-phenylamino)-thiazole-4-carboxylic acid [(E)-5-hydroxy-adamantan-2-yl]-amide], 2 nM.
Compound `O=C(N[C@H]1C2CC3CC1C[C@](O)(C3)C2)c1csc(Nc2ccc(Cl)cc2)n1` [Example 10, 2-(4-Chloro-phenylamino)-thiazole-4-carboxylic acid [(E)-5-hydroxy-adamantan-2-yl]-amide] returned a 50% effective concentration (EC50) in experiment [1] of 8.7 nM.
In turn, `O=C(N[C@H]1C2CC3CC1C[C@](O)(C3)C2)c1csc(Nc2ccc(F)cc2)n1` [Example 11, 2-(4-Fluoro-phenylamino)-thiazole-4-carboxylic acid [(E)-5-hydroxy-adamantan-2-yl]-amide] registered a concentration for a half-maximal effect (EC50) in experiment [1] of 2.7 nM.
`O=C(N[C@H]1C2CC3CC1C[C@](O)(C3)C2)c1csc(Nc2ccc(Cl)c(Cl)c2)n1` [Example 12, 2-(3,4-Dichloro-phenylamino)-thiazole-4-carboxylic acid [(E)-5-hydroxy-adamantan-2-yl]-amide] yielded a 50% effective concentration (EC50) in experiment [1] of 112 nM.
As for `O=C(N[C@H]1C2CC3CC1C[C@](O)(C3)C2)c1csc(NCc2cccnc2)n1` [Example 13, 2-[(Pyridin-3-ylmethyl)-amino]-thiazole-4-carboxylic acid [(E)-5-hydroxy-adamantan-2-yl]-amide], in experiment [1], a half-maximal response (EC50) required 39 nM.
`O=C(N[C@H]1C2CC3CC1C[C@](O)(C3)C2)c1csc(NCc2ccccc2)n1` [Example 14, 2-Benzylamino-thiazole-4-carboxylic acid [(E)-5-hydroxy-adamantan-2-yl]-amide] showed an EC50 in experiment [1] of 78 nM.
For `O=C(N[C@H]1C2CC3CC1C[C@](O)(C3)C2)c1csc(NCCc2cccnc2)n1` [Example 15, 2-(2-Pyridin-3-yl-ethylamino)-thiazole-4-carboxylic acid [(E)-5-hydroxy-adamantan-2-yl]-amide], in experiment [1], it took 165 nM to reach a half-maximal effect (EC50).
The same measure, in the same setting: the result for `O=C(N[C@H]1C2CC3CC1C[C@](O)(C3)C2)c1csc(NCCc2ccncc2)n1` [Example 16, 2-(2-Pyridin-4-yl-ethylamino)-thiazole-4-carboxylic acid [(E)-5-hydroxy-adamantan-2-yl]-amide] reads 369 nM; that for `O=C(N[C@H]1C2CC3CC1C[C@](O)(C3)C2)c1cnc(Nc2ccc(Cl)cn2)s1` [Example 17, 2-(5-Chloro-pyridin-2-ylamino)-thiazole-5-carboxylic acid [(E)-5-hydroxy-adamantan-2-yl]-amide], 31 nM; that for `Cc1nc(NCCc2ccccc2)sc1C(=O)N[C@H]1C2CC3CC1C[C@](O)(C3)C2` [Example 18, 4-Methyl-2-phenethylamino-thiazole-5-carboxylic acid [(E)-5-hydroxy-adamantan-2-yl]-amide], 48 nM.

In general, EC50 refers to the concentration at which the effect is half-maximal. Lower therefore signals a more potent agent. The term IC50 denotes the point on the concentration scale where inhibition reaches its midpoint. Lower therefore signals higher potency.
